Test results taken from publication PMC9481570, “A small molecule antagonist of SMN disrupts the interaction between SMN and RNAP II” (Nature Communications, 2022).

Test system: GEMIN1
Assay: AP-MS chemical proteomics, GEMIN1
Type: binding, human
Conditions: biotin-Cmpd 1 pulldown, competition with 200 μM compound 1 relative to DMSO, U2OS lysate
Experimental: The samples for AP-MS were prepared following pulldown procedure as previously described with minor modifications. Briefly, U2OS cells were lysed in RIPA buffer and the cell lysate was equally divided into two groups: (1) DMSO group (control group): the cell lysate was incubated with 20 μM biotin-labeled compound 1; (2) Cpmd 1 group (sample group): the cell lysate was incubated with 20 μM biotin-labeled compound 1 and 200 μM free compound 1. Each group contains three biological replicates. They were incubated overnight at 4 °C, then 30 μL streptavidin beads (Thermo Fisher, 20353) was added and incubated at 4 °C for 1 h. The beads were then washed with RIPA buffer for 3 times, 10 min/time. […]
Samples were analyzed by nanoLC-MS/MS (nanoRSLC, Thermo Fisher) using an Aurora series (Ion Opticks) reversed phase HPLC column (25 cm length × 75 µm inner diameter) and directly injected to an Orbitrap Eclipse (Thermo Fisher) using a 120 min gradient (mobile phase A = 0.1% formic acid, mobile phase B = 99.9% acetonitrile with 0.1% formic acid; hold 2% B for 5 min, 2–6% B in 0.1 min, 6–25% in 100 min, 25–50% in 15 min) at a flow rate of 350 nL/min. Eluted peptide ions were analyzed using a data-dependent acquisition (DDA) method with resolution settings of 120,000 and 15,000 (at m/z 200) for MS1 and MS2 scans, respectively. […]

## Cn1c2c(c(=N)c3c1CCC3)CCC2 [Compound 1, 4-methyl-2,3,4,5,6,7-hexahydrodicyclopenta[b,e]pyridin-8(1H)-imine]
  log2 FC (Cmpd 1/DMSO), GEMIN1: −6.9
